Measurements from patent US8791132B2, “Compounds and methods for treatment of hypertension” (Medivation Technologies, Inc., priority 2011, dated 2014).

Columns and labels:
[1] = target: T1, human recombinant adrenergic α2A receptor (Homo sapiens, UniProt P08913); test: Radioligand binding, adrenergic α2A ([3H]MK-912); settings: compound at 0.1 μM, [3H]MK-912, repeat assays, each datapoint shown; for Percentage inhibition of ligand binding, Adrenergic α2A: 0.1 µM; for inhibition at 0.1 µM: read-out: Percentage inhibition of ligand binding, Adrenergic α2A
T1 construct: expressed in transfected cells; host or cells: insect Sf9 cells
T1 sequence (P08913 1-465): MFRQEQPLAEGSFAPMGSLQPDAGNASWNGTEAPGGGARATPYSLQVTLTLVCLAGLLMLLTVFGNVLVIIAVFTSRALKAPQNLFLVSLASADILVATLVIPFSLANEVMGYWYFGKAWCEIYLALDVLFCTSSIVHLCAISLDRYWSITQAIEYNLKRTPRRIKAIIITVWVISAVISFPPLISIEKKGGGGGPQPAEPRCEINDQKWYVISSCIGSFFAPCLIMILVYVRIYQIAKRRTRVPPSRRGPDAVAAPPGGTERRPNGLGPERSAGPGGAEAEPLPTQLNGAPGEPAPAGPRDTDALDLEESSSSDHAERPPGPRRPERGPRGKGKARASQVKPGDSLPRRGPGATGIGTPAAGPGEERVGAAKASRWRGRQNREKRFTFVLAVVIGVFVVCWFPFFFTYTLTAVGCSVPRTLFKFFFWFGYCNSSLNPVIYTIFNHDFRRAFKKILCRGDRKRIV
Outline: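 In 50 mM Tris-HCl (pH 7.4) containing 12.5 mM MgCl2 and 2 mM EDTA, Sf9-expressed receptor was exposed to test compound plus 1 nM [3H]MK-912 at 25 °C for 60 min. Specific binding, corrected using 10 μM WB-4101, was quantified by filtration and counting and expressed as percent inhibition.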

[2] = target: T2, rat adrenergic α1B receptor (Rattus norvegicus, UniProt P15823); test: Radioligand binding, adrenergic α1B ([3H]Prazosin); settings: compound at 0.1 μM, [3H]Prazosin, repeat assays, each datapoint shown; for Percentage inhibition of ligand binding, Adrenergic α1B: 0.1 µM; for inhibition at 0.1 µM: read-out: Percentage inhibition of ligand binding, Adrenergic α1B
T2 construct: rat adrenergic α1B receptor obtained from Wistar Rat liver; from tissue; host or cells: Wistar rat liver
T2 sequence (P15823 1-515): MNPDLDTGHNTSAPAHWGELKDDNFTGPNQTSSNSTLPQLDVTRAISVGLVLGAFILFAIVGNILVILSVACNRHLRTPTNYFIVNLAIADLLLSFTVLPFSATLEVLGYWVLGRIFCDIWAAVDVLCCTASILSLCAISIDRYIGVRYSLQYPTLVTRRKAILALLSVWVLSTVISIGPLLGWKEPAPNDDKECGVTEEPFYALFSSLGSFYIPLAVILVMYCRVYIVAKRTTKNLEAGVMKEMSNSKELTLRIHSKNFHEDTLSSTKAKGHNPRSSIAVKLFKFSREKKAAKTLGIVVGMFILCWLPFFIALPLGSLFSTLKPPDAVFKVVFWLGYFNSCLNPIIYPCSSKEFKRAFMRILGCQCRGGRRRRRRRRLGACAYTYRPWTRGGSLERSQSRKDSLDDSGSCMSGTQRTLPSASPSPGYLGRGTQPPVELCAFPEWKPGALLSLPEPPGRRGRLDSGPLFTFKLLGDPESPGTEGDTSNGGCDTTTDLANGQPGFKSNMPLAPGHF
Outline: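 Filter binding with Wistar rat liver α1B preparation: test compound plus 0.25 nM [3H]prazosin, 1 h at 25° C in modified Tris-HCl buffer pH 7.4.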

[3] = target: T3, human recombinant adrenergic α2B receptor (Homo sapiens, UniProt P18089); test: Radioligand binding, adrenergic α2B ([3H]Rauwolscine); settings: compound at 0.03 μM, [3H]Rauwolscine, repeat assays, each datapoint shown; for Percentage inhibition of ligand binding, Adrenergic α2B: 0.03 µM; for inhibition at 0.03 µM: read-out: Percentage inhibition of ligand binding, Adrenergic α2B
T3 construct: expressed in transfected cells; host or cells: CHO-K1
T3 sequence (P18089 1-450): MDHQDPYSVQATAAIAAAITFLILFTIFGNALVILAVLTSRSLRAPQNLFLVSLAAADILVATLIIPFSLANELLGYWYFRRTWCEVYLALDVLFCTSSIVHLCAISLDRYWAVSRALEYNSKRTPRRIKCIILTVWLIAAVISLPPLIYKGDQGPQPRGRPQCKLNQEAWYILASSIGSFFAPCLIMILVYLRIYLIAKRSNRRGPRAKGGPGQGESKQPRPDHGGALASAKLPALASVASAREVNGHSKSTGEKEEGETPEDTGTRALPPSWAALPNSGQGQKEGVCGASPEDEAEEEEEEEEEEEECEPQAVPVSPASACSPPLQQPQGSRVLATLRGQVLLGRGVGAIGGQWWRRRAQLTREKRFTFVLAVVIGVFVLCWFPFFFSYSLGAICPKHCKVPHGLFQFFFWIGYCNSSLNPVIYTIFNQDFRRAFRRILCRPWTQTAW
Outline: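 Values are percent inhibition of specific radioligand binding. The receptor, expressed in CHO-K1 cells, was exposed to 2.5 nM [3H]Rauwolscine at 25° C for 60 min, with 10 μM Prazosin marking non-specific binding.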

Percentage inhibition of ligand binding, Adrenergic α2A [1] [%]	Percentage inhibition of ligand binding, Adrenergic α1B [2] [%]	Percentage inhibition of ligand binding, Adrenergic α2B [3] [%]	inhibition at 0.1 µM [2] [%]	inhibition at 0.1 µM [1] [%]	inhibition at 0.03 µM [3] [%]	SMILES
–	–	58	16	12	–	CN1CCc2c(c3cccc(Br)c3n2CC(O)c2ccncc2)C1 (single isomer, unassigned) [48a]
17	14	86	–	–	–	CN1CCc2c(c3cccc(Br)c3n2CC(O)c2ccncc2)C1 (single isomer, unassigned) [48b]
1	–	–	4	–	18	CC(=O)c1ccc2c(c1)c1c(n2CC(O)c2ccncc2)CCN(C)C1 (single isomer, unassigned) [49a, 1-(2,3,4,5-tetrahydro-5-(2-hydroxy-2-(pyridin-4-yl)ethyl)-2-methyl-1H-pyrido[4,3-b]indol-8-yl)ethanone]
6	5	19	–	–	–	CC(=O)c1ccc2c(c1)c1c(n2CC(O)c2ccncc2)CCN(C)C1 (single isomer, unassigned) [49b, 1-(2,3,4,5-tetrahydro-5-(2-hydroxy-2-(pyridin-4-yl)ethyl)-2-methyl-1H-pyrido[4,3-b]indol-8-yl)ethanone]
11	8	21	–	–	–	COc1ccc(C(O)Cn2c3c(c4cc(C)ccc42)CN(C)CC3)cn1 (single isomer, unassigned) [51a, 2-(2,8-dimethyl-1,2,3,4-tetrahydro-pyrido[4,3-b]indol-5-yl)-1-(6-methoxy-pyridin-3-yl)-ethanol]
26	36	90	–	–	–	COc1ccc(C(O)Cn2c3c(c4cc(C)ccc42)CN(C)CC3)cn1 (single isomer, unassigned) [51b, 2-(2,8-dimethyl-1,2,3,4-tetrahydro-pyrido[4,3-b]indol-5-yl)-1-(6-methoxy-pyridin-3-yl)-ethanol]
–	–	37	12	10	–	CN1CCc2c(c3ccc(Cl)cc3n2CC(O)c2ccncc2)C1 (single isomer, unassigned) [53a, 2-(7-chloro-2-methyl-3,4-dihydro-1H-pyrido[4,3-b]indol-5(2H)-yl)-1-(pyridin-4-yl)ethanol]
12	14	85	–	–	–	CN1CCc2c(c3ccc(Cl)cc3n2CC(O)c2ccncc2)C1 (single isomer, unassigned) [53b, 2-(7-chloro-2-methyl-3,4-dihydro-1H-pyrido[4,3-b]indol-5(2H)-yl)-1-(pyridin-4-yl)ethanol]
30	39	–	–	–	105	Cc1ccc2c(c1)c1c(n2CC(OC(=O)C(C)C)c2ccncc2)CCN(C)C1 (single isomer, unassigned) [54a, 2-(1,2,3,4-tetrahydro-2,8-dimethylpyrido[4,3-b]indol-5-yl)-1-(pyridin-4-yl)ethyl isobutyrate]
66	71	106	–	–	–	Cc1ccc2c(c1)c1c(n2CC(OC(=O)C(C)C)c2ccncc2)CCN(C)C1 (single isomer, unassigned) [54b, 2-(1,2,3,4-tetrahydro-2,8-dimethylpyrido[4,3-b]indol-5-yl)-1-(pyridin-4-yl)ethyl isobutyrate]

Further lines, the compound ahead of its results:

SMILES	Percentage inhibition of ligand binding, Adrenergic α2A [1] [%]	Percentage inhibition of ligand binding, Adrenergic α1B [2] [%]	Percentage inhibition of ligand binding, Adrenergic α2B [3] [%]	inhibition at 0.1 µM [2] [%]	inhibition at 0.1 µM [1] [%]	inhibition at 0.03 µM [3] [%]
Cc1ccc2c(c1)c1c(n2CC(O)c2cccnc2)CN(C)CC1 (single isomer, unassigned) [43a, 2-(2,6-dimethyl-1,2,3,4-tetrahydro-β-carbolin-9-yl)-1-pyridin-3-yl-ethanol]	9	33	51	–	–	–
Cc1ccc2c(c1)c1c(n2CC(O)c2cccnc2)CN(C)CC1 (single isomer, unassigned) [43b, 2-(2,6-dimethyl-1,2,3,4-tetrahydro-β-carbolin-9-yl)-1-pyridin-3-yl-ethanol]	13	46	27	–	–	–
COc1cccc2c3c(n(CC(O)c4ccncc4)c12)CCN(C)C3 (single isomer, unassigned) [44a, 2-(6-methoxy-2-methyl-3,4-dihydro-1H-pyrido[4,3-b]indol-5(2H)-yl)-1-(pyridin-4-yl)ethanol]	11	12	33	–	–	–
COc1cccc2c3c(n(CC(O)c4ccncc4)c12)CCN(C)C3 (single isomer, unassigned) [44b, 2-(6-methoxy-2-methyl-3,4-dihydro-1H-pyrido[4,3-b]indol-5(2H)-yl)-1-(pyridin-4-yl)ethanol]	1	18	75	–	–	–
CN1CCc2c(c3cccc(Cl)c3n2CC(O)c2ccncc2)C1 (single isomer, unassigned) [45a]	−4	–	54	23	–	–
CN1CCc2c(c3cccc(Cl)c3n2CC(O)c2ccncc2)C1 (single isomer, unassigned) [45b]	16	24	96	–	–	–
Cc1ccc2c(c1)c1c(n2CC(O)c2ccncc2)CCN2CCCCC12 (single isomer, unassigned) [47a]	10	58	40	–	–	–
Cc1ccc2c(c1)c1c(n2CC(O)c2ccncc2)CCN2CCCCC12 (single isomer, unassigned) [47b]	41	70	119	–	–	–
Cc1ccc2c(c1)c1c(n2CC(O)c2ccncc2)CCN2CCCCC12 (single isomer, unassigned) [47c]	4	6	53	–	–	–
Cc1ccc2c(c1)c1c(n2CC(O)c2ccncc2)CCN2CCCCC12 (single isomer, unassigned) [47d]	−3	5	30	–	–	–
